Key:
KPC-2838c3 cells = assay: VHL proficient mouse syngeneic pancreatic tumor model; format: in vivo, C57BL/6J mice; conditions: for Final CRs (complete tumor regressions) / Final PRs (partial tumor regressions): 10 mice per group; for Final CRs (complete tumor regressions): CR = no observable tumor; for Final PRs (partial tumor regressions): PR = tumor volume lower than original size when treatment began; for TGI (tumor growth inhibition): Day 24, MK-6482 3 mg/kg BID oral, lenvatinib 10 mg/kg QD oral, anti-PD-1 10 mg/kg i.p. every 5 days
Text: Prior to treatment initiation, female C57BL/6J mice aged 7 weeks weighing between 18 to 21 grams were anesthetized and injected into the rear flank with 0.5×10^6 log-phase sub-confluent KPC-2838c3 cells. Ten (10) days later when the mean tumor volume of inoculated animals reached approximately 95 mm^3, mice were pair-matched into 8 treatment groups consisting of 10 mice per group. Treatment groups consisted of: 1) 0.5% methylcellulose (Vehicle)+Isotype mouse IgG1 antibody (mIgG1); 2) MK-6482+mIgG1; 3) Lenvatinib+mIgG1; 4) Vehicle+anti-mouse PD-1 IgG1 antibody; 5) MK-6482+anti-PD-1; 6) Lenvatinib+anti-PD-1; 7) MK-6482+Lenvatinib; 8) MK-6482+Lenvatinib+anti-PD-1. Vehicle and MK-6482 were orally gavage-dosed twice daily (BID) at 3 mg/kg body weight. Lenvatinib was orally dosed once daily (QD) at 10 mg/kg body weight. Isotype control, a mouse monoclonal antibody specific for adenoviral hexon of the isotype IgG1, and anti-PD-1 antibodies were dosed intraperitoneally every 5 days at 10 mg/kg body weight. Start of treatments was considered Day 0 and dosing based on schedules continued as described until Day 45. Caliper measurements of tumors and body weights were captured twice weekly. Statistical analyses were performed by one-way ANOVA with Tukey multiple comparison tests at the timepoints specified when treatment groups reached endpoints.
CRs were defined as no observable tumor whereas PRs were tumors whose volume was lower than the original tumor size when treatment began. There was no significant body weight loss or adverse events observed in any animals treated with the above therapies, indicating the treatments were well tolerated.

[1] = FIH Phase 1 study of tolerability, safety, PK and PD of MK-6482 in participants with advanced solid tumors; format: in vivo, human
Description: As of 6 Sep. […] 52 additional participants with advanced RCC were treated in an expansion cohort (Part 1B) at the clinical dose of 120 mg QD.

[2] = Phase 2 open-label efficacy and safety study in VHL disease associated RCC; format: in vivo, human; conditions: 120 mg QD, 61 participants with VHL disease associated RCC
Text: A Phase 2, open-label efficacy and safety study in participants with VHL disease associated RCC is ongoing. As of 6 Sep.

[3] = Phase 1 cross-over food-effect PK study of single dose MK-6482 in healthy volunteers; format: in vivo, human; conditions: single dose of 120 mg, healthy female adult volunteers
[4] = combined dose escalation and expansion cohorts
[5] = dose escalation (Part 1A) 20 to 240 mg QD and 120 mg BID

Row | SMILES | Final CRs (complete tumor regressions) (KPC-2838c3 cells) | Final PRs (partial tumor regressions) (KPC-2838c3 cells) | TGI (tumor growth inhibition) (KPC-2838c3 cells) [%] | Grade 3 event of hypoxia (DLT) ([1]; 120 mg BID cohort) | accumulation from Day 1 to Day 15 ([1]; 120 mg QD expansion cohort (Part 1B)) [fold] | Cmax ([1]; 120 mg QD expansion cohort (Part 1B), Day 15, read-out: mean steady state Cmax) [µM] | Grade 4 event of thrombocytopenia (DLT) ([1]; 240 mg QD cohort) | most common AEs (occurring in ≥20% of participants) [1, 4] | most common Grade 3 AEs (in ≥5% of participants) [1, 4] | MTD [1, 5] | treatment-related DLTs observed [1, 5] | Vd/F ([1]; human, in vivo) [L] | estimated CL/F ([1]; human, in vivo) [L/h] | Tmax ([1]; human, in vivo, participants with advanced solid tumors, oral, read-out: median tmax) [h] | exposure versus dose ([1]; participants with advanced solid tumors) | most common AE of ≥Grade 3 toxicity (reported by ≥5% of participants) [2] | delay of time to peak MK-6482 exposure, median difference (Fed-Fasted) [3] [h] | most common adverse event (AE) reported: headache [3] [%] | effect of high fat, high calorie meal on extent of MK-6482 exposure ([3]; fed vs fasted) | lowering of maximum plasma MK-6482 concentration by high fat, high calorie meal ([3]; fed vs fasted)
1 | COc1cc2nccc(Oc3ccc(NC(=O)NC4CC4)c(Cl)c3)c2cc1C(N)=O [Lenvatinib, 4-[3-chloro-4-(cyclopropylaminocarbonyl)aminophenoxy]-7-methoxy-6-quinolinecarboxamide] | 0/10 PRs, 0/10 CRs | 0/10 PRs, 0/10 CRs | 90 | – | – | – | – | – | – | – | – | – | – | – | – | – | – | – | – | –
2 | CS(=O)(=O)c1ccc(Oc2cc(F)cc(C#N)c2)c2c1[C@H](O)[C@H](F)[C@@H]2F [MK-6482, 3-[(1S,2S,3R)-2,3-difluoro-1-hydroxy-7-methylsulfonyl-indan-4-yl]oxy-5-fluoro-benzonitrile] | 0/10 PRs, 0/10 CRs | 0/10 PRs, 0/10 CRs | 16 | 1 | 1.5 | 4.67 | 1 | anemia, fatigue, dyspnea, nausea, and peripheral edema | anemia and hypoxia | not reached | 2 | 106 to 266 | 5.22 to 14.4 | 1 to 2.8 | exposure increased with dose | Fatigue | 2 | 12.5 | did not affect | approximately 35%
